Experimental data as given in patent US11117871B2, “Crystalline forms of GSK1278863, preparation method and pharmaceutical use thereof” (GlaxoSmithKline Intellectual Property (No.2) Limited, priority 2017, dated 2021).
≈ marks a conversion by molar mass, not a printed value.

What was measured:
Type in all cases: physicochemical
[1] = Hygroscopicity by dynamic vapor sorption (DVS); settings: for Hygroscopicity (in words): 25° C./80% RH; for Weight gain under 80% Relative Humidity: DVS, 25° C., 80% RH
Procedure: Dynamic vapor sorption (DVS) was applied to test hygroscopicity of Form CS1, Form CS9 and the prior art solid with about 10 mg of samples under 25 °C. The DVS plots of Form CS1, Form CS9 and the prior art solid are substantially as depicted in FIG. 10, FIG. 11 and FIG. 12.

[2] = Physical stability of drug substance on storage (XRPD before/after); settings: for Solid form after storage: 3 months, XRPD; for Time for which crystalline form of drug substance doesn't change on storage: 40° C./75% RH and 60° C./75% RH
Procedure: Form CS1 was stored under different conditions of 25° C./60% RH, 40° C./75% RH and 60° C./75% RH. The XRPD pattern overlay before and after being stored is substantially as depicted in FIG. 13, FIG. 14 and FIG. 15.
Form CS9 was stored under different conditions of 25° C./60% RH, 40° C./75% RH and 60° C./75% RH. The XRPD pattern overlay before and after being stored is substantially as depicted in FIG. 16, FIG. 17 and FIG. 18.

[3] = Kinetic solubility in SGF, FeSSIF, FaSSIF and pure water (HPLC); settings: for Solubility (in words): SGF, FeSSIF, FaSSIF and pure water
From the text: Solubility test method according to the Chinese Pharmacopoeia was used and different pHs of different organs in human body were considered. According to the above two references, a solvent media set with four pH values range from 1.2 to 7.5 were designed in the present disclosure. Specifically: SGF (Simulated gastric fluids, pH=1.8), FeSSIF (Fed state simulated intestinal fluids, pH=5.0), FaSSIF (Fasted state simulated intestinal fluids, pH=6.5), and pure water were used.
Form CS1 and Form CS9 of the present disclosure were suspended into SGF, FeSSIF, FaSSIF and H2O to obtain saturated solutions. The solutions were sampled at fixed time points. Concentrations of the saturated solutions were measured by HPLC to measure the kinetic solubility of Form CS1 and Form CS9.

[4] = Flowability by compressibility index (USP 1174); settings: for Bulk density: 5 mL measuring cylinder, before tapping; for Tapped density: 500 taps; for Compressibility index: (Tapped Density−Bulk Density)/Tapped Density×100%; for Flowability: scale of USP 1174 by compressibility index
Procedure: According to the United States Pharmacopeia (USP) 1174, flowability of Form CS1 and Form CS9 of the present disclosure were evaluated by the compressibility index. The bulk density, tapped density of Form CS1 and Form CS9 were tested, and compressibility index was calculated.
1. Test Method • Samples: Form CS1 and Form CS9 • Instrument: Tap density tester • Utensil: 5 mL measuring cylinder • Number of tapping: 500 times • Bulk density=m/vQ (Mass/volume before tapping) • Tapped density=m/vt (Mass/volume after tapping)
2. Calculation Formula: Compressibility Index (%)=(Tapped Density−Bulk Density)/Tapped Density×100%

[5] = In vitro dissolution of tablets (Chinese Pharmacopoeia 2015 <0931>, paddle); settings: tablet, pH=6.8 phosphate buffer + 1% SDS, 37° C., 75 rpm
Procedure: (§1) Form CS1 or Form CS9 of GSK1278863, microcrystalline cellulose, croscarmellose sodium and magnesium stearate were weighed according to formulation in Table 14 and blended for 2 minutes. The tablets were prepared using a manual tablet press at 5 KN±1 KN pressure with a φ7 mm round tooling. The tablets tablet weight is 100 mg±1 mg. The obtained tablets were packed in 35 cc HDPE bottles (one tablet per bottle) with 1 g desiccant. The bottles were sealed with a sealer.
In vitro dissolution test was performed on obtained tablets and dissolution method according to Chinese Pharmacopoeia 2015<0931> was used. The conditions are as follows:
Medium: pH=6.8 phosphate buffer solution+1% sodium dodecyl sulfate aqueous solution

[6] = Stability of crystalline form in drug products (tablets); settings: for Crystalline form before and after formulation process (in words): blending and tableting at 5 KN±1 KN; for Crystalline form of drug substance in the drug products after storage (in words): tablets, 40° C., 1 month
Procedure: as §1
The above obtained tablets were stored under 40° C./[…] condition for 1 month. […] The results are shown in Table 16, which indicate that Form CS1 and Form CS9 have good stability in the drug products.

SMILES	Hygroscopicity (in words) [1]	Weight gain under 80% Relative Humidity [1]	Solid form after storage ([2]; 25° C./60% RH)	Time for which crystalline form of drug substance doesn't change on storage ([2]; 25° C./60% RH)	Solid form after storage ([2]; 40° C./75% RH)	Solid form after storage ([2]; 60° C./75% RH)	Kinetic solubility ([3]; FaSSIF (pH=6.5), 24 h)	Kinetic solubility ([3]; H2O, 24 h)	Kinetic solubility ([3]; SGF (pH=1.8), 24 h)	Solubility (in words) [3]	Bulk density [4]	Tapped density [4]	Compressibility index [4]	Flowability [4]	Crystalline form before and after formulation process (in words) [6]	Crystalline form of drug substance in the drug products after storage (in words) [6]	other results
O=C(O)CNC(=O)C1C(=O)N(C2CCCCC2)C(=O)N(C2CCCCC2)C1=O [Form CS1]	not hygroscopic	0.53%	Form CS1	at least 3 months	Form CS1	Form CS1	27 µg/mL	16 µg/mL	3 µg/mL	good solubility	0.15 g/mL	0.19 g/mL	21%	Passable (21%-25%, passable flowability)	doesn't change	does not change	solubility kinetic at 1 h ([3]; FaSSIF (fasted state simulated intestinal fluid), pH 6.5, fassif, thermodynamic from solid, FaSSIF (pH=6.5), 1 h): 63 µg/mL (≈ 160 µM); solubility kinetic at 4 h ([3]; FaSSIF (fasted state simulated intestinal fluid), pH 6.5, fassif, thermodynamic from solid, FaSSIF (pH=6.5), 4 h): 50 µg/mL (≈ 127 µM); solubility kinetic at 1 h ([3]; FeSSIF (fed state simulated intestinal fluid), pH 5, fessif, thermodynamic from solid, FeSSIF (pH=5.0), 1 h): 190 µg/mL (≈ 483 µM); solubility kinetic at 4 h ([3]; FeSSIF (fed state simulated intestinal fluid), pH 5, fessif, thermodynamic from solid, FeSSIF (pH=5.0), 4 h): 190 µg/mL (≈ 483 µM); solubility kinetic at 24 h ([3]; FeSSIF (fed state simulated intestinal fluid), pH 5, fessif, thermodynamic from solid, FeSSIF (pH=5.0), 24 h): 160 µg/mL (≈ 407 µM); solubility kinetic at 1 h ([3]; SGF (simulated gastric fluid), pH 1.8, simulated gastric fluid, thermodynamic from solid, SGF (pH=1.8), 1 h): 3.1 µg/mL (≈ 7.88 µM); solubility kinetic at 4 h ([3]; SGF (simulated gastric fluid), pH 1.8, simulated gastric fluid, thermodynamic from solid, SGF (pH=1.8), 4 h): 3.1 µg/mL (≈ 7.88 µM); solubility kinetic at 1 h ([3]; pure water, water, thermodynamic from solid, H2O, 1 h): 14 µg/mL (≈ 35.6 µM); solubility kinetic at 4 h ([3]; pure water, water, thermodynamic from solid, H2O, 4 h): 26 µg/mL (≈ 66.1 µM); Cumulative drug release ([5]; 5 min): 0.0%; Cumulative drug release ([5]; 10 min): 67.7%; Cumulative drug release ([5]; 20 min): 75.8%; Cumulative drug release ([5]; 30 min): 84.8%; Cumulative drug release ([5]; 45 min): 90.1%; Cumulative drug release ([5]; 60 min): 95.2%; Cumulative drug release ([5]; 90 min): 98.3%; Cumulative drug release ([5]; 120 min): 102.5%
O=C(O)CNC(=O)C1C(=O)N(C2CCCCC2)C(=O)N(C2CCCCC2)C1=O [Form CS9]	not hygroscopic	0.22%	Form CS9	at least 3 months	Form CS9	Form CS9	81 µg/mL	60 µg/mL	9.3 µg/mL	good solubility	0.11 g/mL	0.14 g/mL	21%	Passable (21%-25%, passable flowability)	doesn't change	does not change	Kinetic solubility ([3]; FaSSIF (pH=6.5), 1 h): 58 µg/mL; Kinetic solubility ([3]; FaSSIF (pH=6.5), 4 h): 81 µg/mL; Kinetic solubility ([3]; FeSSIF (pH=5.0), 1 h): 150 µg/mL; Kinetic solubility ([3]; FeSSIF (pH=5.0), 4 h): 170 µg/mL; Kinetic solubility ([3]; FeSSIF (pH=5.0), 24 h): 140 µg/mL; Kinetic solubility ([3]; H2O, 1 h): 20 µg/mL; Kinetic solubility ([3]; H2O, 4 h): 38 µg/mL; Kinetic solubility ([3]; SGF (pH=1.8), 1 h): 3.9 µg/mL; Kinetic solubility ([3]; SGF (pH=1.8), 4 h): 4.2 µg/mL
O=C(O)CNC(=O)C1C(=O)N(C2CCCCC2)C(=O)N(C2CCCCC2)C1=O [The prior art solid, reference compound]	higher hygroscopicity	1.14%	–	–	–	–	–	–	–	–	–	–	–	–	–	–	Weight gain under 80% Relative Humidity ([1]; listed as prior art solid): 1.14%
